These are literature values, as cited in US20230000814A1, “PHARMACEUTICAL COMPOSITION COMPRISING STEROID COMPOUND AND OLOPATADINE” (TOKO YAKUHIN KOGYO CO., LTD., priority 2019, published 2023).

Where two headings read alike, the source gives them in different places.

As to `CN(C)CC/C=C1/c2ccccc2COc2ccc(CC(=O)O)cc21` [olopatadine, Olopatadine], the solubility of olopatadine entry (around neutral pH) was “very low” and the solubility of olopatadine result (concentration 0.2% or more as olopatadine free base, solution having pH of 5 or higher) is “not soluble”.
